Measured values from PMC8191789 (2021).

Columns and labels:
[1] = tested on: Myc2345 (DNA, G4) TGAGGGTGGGTAGGGTGGGGAA; assay: CD melting (260 nm); details: K+ 0.6 mM; potassium phosphate, pH 7; 5 μM DNA, 25 μM PEQ
[2] = tested on: Myc2345_T23 (DNA, G4) TGAGGGTGGGTAGGGTGGGTAA; assay: CD melting (260 nm); details: K+ 0.6 mM; potassium phosphate, pH 7; 5 μM DNA, 25 μM PEQ
[3] = tested on: Myc2345 (DNA, G4) TGAGGGTGGGTAGGGTGGGGAA; assay: NMR solution structure; details: K+ 10 mM (potassium phosphate); pH 7.0; PEQ:DNA 3:1; end-stacking on 5'- and 3'-tetrads
[4] = tested on: Myc2345_T23 (DNA, G4) TGAGGGTGGGTAGGGTGGGTAA; assay: NMR solution structure; details: K+ 10 mM (potassium phosphate); pH 6.5; PEQ:DNA 3:1; end-stacking on 5'- and 3'-tetrads
[5] = tested on: 3'-TAMRA-labeled Myc2345_T23 (DNA, G4) TGAGGGTGGGTAGGGTGGGTAA; assay: TAMRA fluorescence quenching titration; details: K+ (25 mM potassium phosphate, 75 mM KCl); pH 7, 25°C; 100 nM DNA
[6] = tested on: Myc2345 (DNA, G4) TGAGGGTGGGTAGGGTGGGGAA; assay: fluorescence competition (TAMRA quenching restored by unlabeled DNA); details: K+ (25 mM potassium phosphate, 75 mM KCl); pH 7, 25°C; C50 is concentration of competing unlabeled DNA; 100 nM 3'-TAMRA-Myc2345_T23, PEQ 10:1
[7] = tested on: Myc2345_T23 (DNA, G4) TGAGGGTGGGTAGGGTGGGTAA; assay: as above; details: K+ (25 mM potassium phosphate, 75 mM KCl); pH 7, 25°C; C50 is concentration of competing unlabeled DNA; 100 nM 3'-TAMRA-Myc2345_T23, PEQ 10:1

- ΔTm [1]: 20.1 ± 0.6 °C
- ΔTm [2]: 21.1 ± 1.3 °C
- binding [3]: yes
- binding [4]: yes
- binding [5]: yes
- C50 [6]: 4.86 µM
- C50 [7]: 3.71 µM
Compound: COc1cc(/C=C/c2cc(C(N)=O)c3ccccc3[n+]2C)ccc1O
